# According to paper PMC7754465, “Multiparameter Kinetic Analysis for Covalent Fragment Optimization by Using Quantitative Irreversible Tethering (qIT)” (Chembiochem, 2020):
# “Also recorded” adds a separate entry of the source. Like-named read-outs stand apart in the source and are kept apart here.
# Experiments:
# [1] = target: T1, Cdk2(ES) = Cdk2(F80C,C177A) (Homo sapiens, UniProt P24941, C177A/F80C); experiment: quantitative irreversible tethering (qIT): rate of cysteine modification of Cdk2(ES); assay type: binding; conditions: for rate enhancement factor (REF): rate with Cdk2(ES) relative to rate with GSH, thiol 5 μM
# T1 construct: GST (N, cleaved yes); made in house; host or cells: E. coli Tuner(DE3)
# Experimental: Figure 2 Comparison of previous and current applications of Quantitative irreversible tethering (qIT). a) Overview of rate determination. A cysteine‐containing biomolecule is treated with covalent fragments under pseudo‐first‐order conditions. Reaction progress is followed by discrete measurement of free cysteine concentration by using the fluorogenic probe CPM, and rate constants (k obs) are derived from exponential regression analysis. b) Comparison of the reactivity profile of each fragment with the POI and GSH typically classes them as unreactive, reactive but non‐selective or reactive and selective. c) Quantification of kinetic POI/GSH selectivity facilitates hit identification. d) The observed rate of reaction between the POI and hit fragment is determined at a range of ligand concentrations by using qIT. Subsequent hyperbolic regression analysis is used to derive K i and k inact to facilitate comprehensive covSAR analysis.
# Therefore, we set out to develop novel classes of electrophile sensitive kinase inhibitors using a covalent fragment approach. Accordingly, we screened a 138‐member library of diverse cysteine‐reactive fragments at 500 μM against Cdk2(ES) and GSH by using the qIT platform and monitored the kinetics of cysteine‐modification over 24 hours. […] Using three standard deviations over the geometric mean REF as the statistical cut‐off for defining hit fragments (REF >27.9) yielded two acrylamide fragments, tetrahydroquinoline 1 (REF=81) and pyrimidine S1 (REF=64) for further investigation (Figures 3c and S2). […]
# D. Rate determination by qIT
# Reaction-plate setup: Each well of a 96-well PCR plate was charged with 60–100 µL of target thiol (GSH or protein, 10 µM) and 4% w/v TCEP-agarose beads in 100 mM phosphate buffer (pH 7.5 or 8) and cooled to 4 °C. Reactions were started by addition of an equal volume of pre-cooled electrophile solution (1 mM, 2% DMSO) in 0.1 M phosphate buffer (final concentra-tion: thiol = 5 µM, electrophile = 0.5 mM, 2% w/v TCEP-agarose beads), with a minimum of 4 wells per plate used as DMSO/thiol only controls. After mixing, TCEP-agarose was pelleted by centrifugation (1,300 rpm, 1 min) and the plate incu-bated at 4 °C. CPM Quench: At a series of time points (typically around 0.25, 0.5, 1, 2, 6, 24, 48, 72 and 120 hours after reac-tion initiation), 3 µL aliquots of each reaction were quenched into a 384-well fluorescence plate (Corning – black, NBS) where each well was charged with 27 µL of CPM solution (1.39 µM) in 100 mM phosphate buffer (pH 7.5) (final concentration: thiol = 0.5 µM, CPM = 1.25 µM). Quenching was typically performed in duplicate and fluorescence plates were incubated at room temperature for 60 minutes before fluorescence intensity (excitation/emission: 384/470 nm) was measured on an EnVisionTM plate reader. Analysis: All analysis was performed using Prism 8.0 software (GraphPad). For each time point, the fluorescence of each reaction was normalized relative Cdk2(ES)/GSH only control = maximum signal, DMSO only = minimum signal. The normalized fluorescence for each reaction was plotted against time. A one phase exponential decay was fitted to each plot (Constraints: Y(0) > 0.8; 0 < plateau = 0), yielding a pseudo first-order rate constant.
# Cdk2 mutations were introduced by PCR and cloned into pGEX6P1 Cdk2 (552), a gift from Jonathon Pines (Addgene plasmid # 61845) used to express GST-Cdk2(WT). GST-Cdk2(ES) = GST-Cdk2(F80C,C177A). All constructs were verified by se-quencing. pGEX6P1 cyclin A2 (amino acids 173-432) was generated by PCR and restriction digestion. GST-CAK1 was con-structed by PCR amplification of S.cerevisiae genomic DNA and the product cloned into pKEG-KG. All protein expression was performed using an adapted autoinduction protocol:[8] Plasmids were transformed into E. coli Tuner(DE3) and cultures grown in autoinduction media at 37 °C until OD600 = 0.9. The cultures were then incubated at 18 °C for a further 40 hours before […]
# Cdk2(ES) = target: T2, Cdk2(ES) (Homo sapiens, UniProt P24941, C177A/F80C); experiment: intact-protein mass spectrometry of covalent modification; assay type: binding; conditions: 0.5 mM acrylamide; 2 h for acrylamide 1
# T2 construct: GST (N, cleaved yes); made in house; host or cells: E. coli Tuner(DE3)
# Source text: To orthogonally validate the results from the qIT assay, we undertook a mass spectrometric study to obtain a direct measurement of both the extent and site of covalent fragment modification. […] To confirm C80 as the site of modification, the 1‐Cdk2(ES) complex was digested with trypsin and the resulting peptides analysed by MALDI mass spectrometry. […] Tandem mass spectrometric analysis of this ion enabled confirmatory sequencing of the peptide and unambiguous assignment of C80 as the site of modification (Figure 4b).
# See High-Throughput Kinetic Analysis for Target-Directed Covalent Ligand Discovery for full library details.4 In brief, Acryla-mide fragments were synthesized from amine precursors; 14,000 primary and secondary amines were selected from Enamine’s commercial collection with molecular weight < 250 Da, from which 235 unique Bemis-Murcko frameworks were generated.[5] […] The physiochemical properties of the final library were calculated using DataWarrior[6] and found to broadly comply with the ‘Rule of 3’ guidelines. […]
# Reaction-plate setup: Each well of a 96-well PCR plate was charged with 60–100 µL of target thiol (GSH or protein, 10 µM) and 4% w/v TCEP-agarose beads in 100 mM phosphate buffer (pH 7.5 or 8) and cooled to 4 °C. […] For each time point, the fluorescence of each reaction was normalized relative Cdk2(ES)/GSH only control = maximum signal, DMSO only = minimum signal. […]
# [2] = fragment 0.5 mM, Cdk2(ES) 5 μM, read-out: Cdk2(ES): kobs/[I]
SMILES,"kinact/KI at 500 µM [1, 2]",rate enhancement factor (REF) ([1]; fragment 0.5 mM),covalent modification of Cdk2(ES) (Cdk2(ES)),"kinact/KI at 500 µM ([1]; Cdk2(ES) (5 μM) + 6 (500 μM), Figure 6c, read-out: kobs/[I] with Cdk2(ES))",covalent SAR by REF-based qIT analysis ([1]; compared with acrylamide 1 or parent analogue),rate of reaction with Cdk2(ES) relative to acrylamide 1 ([1]; qIT)
C=CC(=O)N1CCCc2cc(C(=O)OC)ccc21 [compound 1],1.31 M⁻¹ s⁻¹,81,fully modifies; also recorded: complete mono‐modification,,,
C=CC(=O)Nc1ccc(-c2ncccn2)cc1 [S1],,64,complete mono‐modification,,,
C=CC(=O)N1CCN(CC)c2ccccc21 [compound 6],0.1 M⁻¹ s⁻¹,,,0.105 M⁻¹ s⁻¹,maintained a similar REF,ten times more slowly than acrylamide 1
